The values below come from PubChem BioAssay (NCI).

Where “and” joins values, the source holds several entries; their conditions need not be identical. Equal values may be shown once.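 Dose response: 5 concentrations. Exposure: 48 h. Format: 96-well plates. Endpoint: linear interpolation; highest concentration if not reached. Here, GI50 denotes the concentration required for 50% inhibition of growth. TGI marks complete inhibition of growth.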

Test systems include CCRF-CEM leukemia; HL-60(TB) leukemia; MDA-MB-435; OVCAR-8 ovarian; SK-MEL-28 melanoma; SNB-19 CNS; OVCAR-4 ovarian; TK-10 renal; CAKI-1 renal; A498 renal.
Holding throughout (experiment): DTP human tumour cell line panel, 48 h

One may read the TGI as the concentration giving total growth inhibition. Read a high TGI as less potent growth arrest. `NC(N)=NS(=O)(=O)c1ccc(NCc2c3ccccc3nc3ccccc23)cc1`: the concentration for total growth inhibition (TGI) in the assay with CCRF-CEM leukemia is 9.03 µM; in the assay on HL-60(TB) leukemia it was 10.9 µM; in the assay with MDA-MB-435, above 100 µM; in the assay on OVCAR-8 ovarian it was 53.8 µM; in the assay with SK-MEL-28 melanoma it was above 97.1 µM; in the assay with SNB-19 CNS, 20.7 µM. Also, the concentration for total growth inhibition (TGI) in the assay on OVCAR-4 ovarian is above 100 µM; in the assay with TK-10 renal it was above 88 µM; in the assay on CAKI-1 renal, 69.2 µM; in the assay with A498 renal, 12 µM.
As to `CC(=O)OC1CC(n2cc(F)c(=O)[nH]c2=O)OC1CO` (stereo not given), the concentration for total growth inhibition (TGI) with CCRF-CEM leukemia, in the assay with HL-60(TB) leukemia, in the assay with MDA-MB-435, in the assay on OVCAR-8 ovarian, with SK-MEL-28 melanoma and in the assay on SNB-19 CNS was above 100 µM throughout. Moreover, the TGI is above 100 µM in the assay on OVCAR-4 ovarian, above 100 µM in the assay with TK-10 renal, above 100 µM in the assay on CAKI-1 renal and 15.5 µM in the assay on A498 renal.
As to `C1CCN(CCC2CCCCN2)CC1` (stereo not given), the concentration for total growth inhibition (TGI) in the assay on CCRF-CEM leukemia, in the assay on HL-60(TB) leukemia, in the assay with MDA-MB-435, in the assay on OVCAR-8 ovarian, with SK-MEL-28 melanoma and with SNB-19 CNS was above 100 µM throughout. Besides, the TGI in the assay on OVCAR-4 ovarian, with TK-10 renal, in the assay on CAKI-1 renal and in the assay on A498 renal was above 100 µM throughout.
By GI50 is commonly meant the concentration at which growth is held to half of that of the control. For `CN1CCCNc2c(c(=O)c2=O)NCCCN(C)CCCNc2c(c(=O)c2=O)NCCCN(C)CCCNc2c(c(=O)c2=O)NCCCN(C)CCCNc2c(c(=O)c2=O)NCCCN(C)CCCNc2c(c(=O)c2=O)NCCCN(C)CCCNc2c(c(=O)c2=O)NCCCN(C)CCCNc2c(c(=O)c2=O)NCCC1`, the GI50 was 2.24 µM in the assay with CCRF-CEM leukemia; 5.82 µM in the assay on HL-60(TB) leukemia; 2.68 µM in the assay on MDA-MB-435; 2.48 µM in the assay with OVCAR-8 ovarian; 3.7 µM with SK-MEL-28 melanoma; 2.59 µM in the assay on SNB-19 CNS. For the same compound, the GI50 in the assay on OVCAR-4 ovarian is 2.98 µM; in the assay on TK-10 renal, 1.71 µM; in the assay on CAKI-1 renal, 6.14 µM; in the assay with A498 renal it was 2.72 µM. Further, the concentration for total growth inhibition (TGI) came out at 49.3 µM in the assay with CCRF-CEM leukemia; 32.4 µM with HL-60(TB) leukemia; 11.5 µM in the assay on MDA-MB-435; 46.8 µM with OVCAR-8 ovarian; 16.2 µM in the assay with SK-MEL-28 melanoma; 33.9 µM in the assay with SNB-19 CNS. Also, the total growth inhibition concentration (TGI) was found to be 16.7 µM with OVCAR-4 ovarian, 8.24 µM in the assay with TK-10 renal, 13.1 µM in the assay on CAKI-1 renal and 11.1 µM in the assay with A498 renal.
For the compound `CC1/C=C/C=C/C=C/C=C/C=C/C=C/C=C/C(O[C@@H]2O[C@H](C)[C@H](O)[C@@H](O)[C@@H]2N)CC(O)C(C(=O)O)C(O)CC(=O)CC(O)CC(O)CC(O)CC(=O)CCCC(=O)CC(=O)OC1C(C)CC(C)C(O)CC(=O)c1ccc(N)cc1` (stereo not given in full), the GI50 with CCRF-CEM leukemia was 0.0627 µM and 0.206 µM; in the assay on HL-60(TB) leukemia it was 0.0609 µM and 0.178 µM; in the assay on MDA-MB-435, 0.0597 µM and 0.208 µM; in the assay with OVCAR-8 ovarian, 0.0701 µM and 0.347 µM; with SK-MEL-28 melanoma, 0.0622 µM and 0.189 µM; in the assay on SNB-19 CNS, 0.066 µM and 0.279 µM. Also, the GI50 in the assay with OVCAR-4 ovarian is 0.0693 µM and 0.246 µM; in the assay with TK-10 renal, 0.0573 µM and 0.315 µM; with CAKI-1 renal, 0.0583 µM and 0.186 µM; in the assay with A498 renal, 0.0512 µM and 0.159 µM. For the same compound, the total growth inhibition concentration (TGI) in the assay with CCRF-CEM leukemia was 0.141 µM and 0.489 µM; in the assay with HL-60(TB) leukemia, 0.145 µM and 0.396 µM; with MDA-MB-435, 0.108 µM and 0.438 µM; in the assay on OVCAR-8 ovarian, 0.152 µM and 1.23 µM; in the assay with SK-MEL-28 melanoma, 0.108 µM and 0.356 µM; in the assay on SNB-19 CNS, 0.147 µM and 1.09 µM. The TGI is 0.154 µM and 0.697 µM with OVCAR-4 ovarian; 0.104 µM and 0.983 µM in the assay with TK-10 renal; 0.107 µM and 0.357 µM in the assay on CAKI-1 renal; 0.0948 µM and 0.32 µM with A498 renal.
As to `CCCCCCCC/C=C/CCCCCCCCC1=NCCN1CCO`, the GI50 was 1.91 µM in the assay on CCRF-CEM leukemia; 2.45 µM in the assay with HL-60(TB) leukemia; 1.87 µM in the assay with MDA-MB-435; 3.88 µM in the assay with OVCAR-8 ovarian; 10.5 µM with SK-MEL-28 melanoma; 7.21 µM with SNB-19 CNS. For the same compound, the GI50 with OVCAR-4 ovarian was 7 µM; in the assay on TK-10 renal, 12.6 µM; with CAKI-1 renal, 3.61 µM; with A498 renal it was 2.34 µM. Moreover, the concentration for total growth inhibition (TGI) with CCRF-CEM leukemia turned out to be 4.96 µM; with HL-60(TB) leukemia, 6.35 µM; in the assay on MDA-MB-435 it was 3.91 µM; in the assay with OVCAR-8 ovarian, 21.7 µM; in the assay on SK-MEL-28 melanoma, 24.4 µM; in the assay with SNB-19 CNS, 33.2 µM. The concentration for total growth inhibition (TGI) in the assay with OVCAR-4 ovarian came out at 30.7 µM; in the assay with TK-10 renal, 26.7 µM; in the assay with CAKI-1 renal, 14.8 µM; in the assay with A498 renal it was 15.5 µM.
For the compound `C=C(C)[C@@H]1CC[C@]2(C)[C@H](C(=O)C=C3[C@@H]4C[C@](C)(C(=O)N5CCN(C)CC5)CC[C@]4(C)CC[C@]32C)[C@@]1(C)CCC#N`, the GI50 in the assay with CCRF-CEM leukemia is 6.62 µM; in the assay with HL-60(TB) leukemia, 4.19 µM; in the assay with MDA-MB-435 it was 7.33 µM; in the assay on OVCAR-8 ovarian, 8.12 µM; in the assay on SK-MEL-28 melanoma, 7.23 µM; in the assay with SNB-19 CNS it was 7.87 µM. For the same compound, the GI50 was 6.21 µM in the assay on OVCAR-4 ovarian, 8.16 µM in the assay with TK-10 renal, 6.27 µM with CAKI-1 renal and 7.77 µM in the assay with A498 renal. Moreover, the TGI in the assay with CCRF-CEM leukemia amounted to 16.3 µM; in the assay on HL-60(TB) leukemia, 11.8 µM; in the assay on MDA-MB-435, 14.2 µM; in the assay with OVCAR-8 ovarian, 16.2 µM; with SK-MEL-28 melanoma, 13.8 µM; with SNB-19 CNS, 14.9 µM. Besides, the TGI worked out at 13.6 µM in the assay with OVCAR-4 ovarian, 15.5 µM in the assay on TK-10 renal, 12.5 µM in the assay with CAKI-1 renal and 14.9 µM in the assay on A498 renal.
For the compound `CCCCCC(O)C1C(=O)OC(C)C(O)/C=C/C=C/C=C/C=C\C=C(\C)C(O)CC(O)CC(O)CC(O)CC(O)CC(O)CC1O` (stereo not given), the GI50 with CCRF-CEM leukemia, with HL-60(TB) leukemia, with MDA-MB-435, with OVCAR-8 ovarian, with SK-MEL-28 melanoma and with SNB-19 CNS was above 100 µM in each case. The GI50 with OVCAR-4 ovarian, in the assay on TK-10 renal, in the assay with CAKI-1 renal and with A498 renal was above 100 µM throughout. The total growth inhibition concentration (TGI) in the assay on CCRF-CEM leukemia, in the assay with HL-60(TB) leukemia, with MDA-MB-435, with OVCAR-8 ovarian, in the assay on SK-MEL-28 melanoma and in the assay with SNB-19 CNS was above 100 µM throughout. The TGI was 26.3 µM and > 100 µM with OVCAR-4 ovarian; above 100 µM with TK-10 renal; above 100 µM with CAKI-1 renal; above 100 µM in the assay on A498 renal.
As for `C/C(=N\NC(=O)c1ccncc1)c1ccc2ccccc2c1O`, the total growth inhibition concentration (TGI) in the assay with CCRF-CEM leukemia is above 100 µM; in the assay with HL-60(TB) leukemia, 10.3 µM; in the assay with MDA-MB-435, above 100 µM; in the assay on OVCAR-8 ovarian, 35.3 µM; in the assay with SK-MEL-28 melanoma, above 100 µM; with SNB-19 CNS, above 100 µM. The TGI was above 65.2 µM in the assay with OVCAR-4 ovarian, above 100 µM with TK-10 renal, above 84.5 µM in the assay on CAKI-1 renal and 53.3 µM in the assay on A498 renal.
For the compound `CC(=O)c1c(C(F)(F)F)n([O-])c2ccc(Cl)cc2[n+]1=O`, the GI50 was 0.0108 µM in the assay on CCRF-CEM leukemia; 0.681 µM in the assay on HL-60(TB) leukemia; 2.8 µM in the assay with MDA-MB-435; 3.66 µM in the assay on OVCAR-8 ovarian; 1.97 µM in the assay with SK-MEL-28 melanoma; 4.75 µM with SNB-19 CNS. In addition, the GI50 is 19 µM in the assay with OVCAR-4 ovarian, 0.838 µM with TK-10 renal, 3.69 µM in the assay on CAKI-1 renal and 1.33 µM in the assay with A498 renal. Also, the concentration for total growth inhibition (TGI) is 2.22 µM in the assay on CCRF-CEM leukemia; 4.65 µM in the assay with HL-60(TB) leukemia; 9.94 µM with MDA-MB-435; 20.4 µM in the assay on OVCAR-8 ovarian; 6.31 µM with SK-MEL-28 melanoma; above 27.6 µM in the assay with SNB-19 CNS. Further, the TGI in the assay with OVCAR-4 ovarian was 50.8 µM; in the assay on TK-10 renal, 2.66 µM; in the assay with CAKI-1 renal, 13.5 µM; with A498 renal it was 2.88 µM.
For the compound `CCSCC(N)C(=O)O` (stereo not given), the TGI in the assay with CCRF-CEM leukemia, with HL-60(TB) leukemia, in the assay on MDA-MB-435, in the assay on OVCAR-8 ovarian, in the assay with SK-MEL-28 melanoma and with SNB-19 CNS was above 100 µM in each case. Besides, the concentration for total growth inhibition (TGI) in the assay with OVCAR-4 ovarian, in the assay on TK-10 renal, in the assay with CAKI-1 renal and with A498 renal was above 100 µM each time.
Turning to `CC(=O)Nc1ccc(Sc2ccc([N+](=O)[O-])o2)cc1`, the GI50 was 0.886 µM in the assay on CCRF-CEM leukemia; 1.29 µM with HL-60(TB) leukemia; 1.7 µM in the assay with MDA-MB-435; 3.06 µM with OVCAR-8 ovarian; 1.75 µM in the assay on SK-MEL-28 melanoma; 10.1 µM with SNB-19 CNS. The GI50 was 2.27 µM in the assay with OVCAR-4 ovarian, 2.13 µM in the assay with TK-10 renal, 1.41 µM with CAKI-1 renal and 12.2 µM in the assay with A498 renal. The total growth inhibition concentration (TGI) in the assay with CCRF-CEM leukemia worked out at 3.93 µM; in the assay on HL-60(TB) leukemia it was 3.79 µM; in the assay with MDA-MB-435 it was 3.44 µM; with OVCAR-8 ovarian, 13.4 µM; in the assay on SK-MEL-28 melanoma, 3.6 µM; in the assay on SNB-19 CNS, 23.2 µM. For the same compound, the concentration for total growth inhibition (TGI) was determined as 5.1 µM in the assay with OVCAR-4 ovarian, 5.99 µM in the assay with TK-10 renal, 3.06 µM in the assay with CAKI-1 renal and 25 µM in the assay with A498 renal.
